Experimental data: US20240180900A1, “COMPOUNDS AND METHODS FOR THE TARGETED DEGRADATION OF ANDROGEN RECEPTOR” (Arvinas Operations, Inc., priority 2022, published 2024)

Columns and labels:
AR V716M = target: T1, AR V716M (Homo sapiens, UniProt P10275, V716M); assay: AR degradation in T-Rex-293 cell line, V716M; assay type: cell-based; conditions: T-Rex-293, ELISA
T1 construct: expressed in transfected cells; host or cells: T-REx-293
Source text: (§1) FIG. 3 is a graph showing Compound A's ability to degrade clinically relevant mutated forms AR.
(§2) To assess the ability of Compound A to degrade variants of the AR, vectors expressing wild-type AR or mutant AR proteins harboring clinically observed mutations in the ligand binding domain (13 with single amino acid changes or 4 with 2 amino acid changes) (Azad A. A., Volik S. V., Wyatt A. W., et al. Androgen receptor gene aberrations in circulating cell-free DNA: biomarkers of therapeutic resistance in castration-resistant prostate cancer. Clin Cancer Res. 2015; 21:2315-2324; Robinson D., Van Allen E. M., Wu Y. M., et al. Integrative clinical genomics of advanced prostate cancer. Cell. 2015; 161:1215-1228; Ledet E. M., Lilly M. B., Sonpavde G., et al. Comprehensive analysis of AR alterations in circulating tumor DNA from patients with advanced prostate cancer. Oncologist.

AR T878A/D891H = target: T2, AR T878A/D891H (Homo sapiens, UniProt P10275, D891H/T878A); assay: AR degradation in T-Rex-293 cell line, T878A/D891H; assay type: cell-based; conditions: T-Rex-293, ELISA
T2 construct: expressed in transfected cells; host or cells: T-REx-293
Source text: as §1, §2

AR W742L = target: T3, AR W742L (Homo sapiens, UniProt P10275, W742L); assay: AR degradation in T-Rex-293 cell line, W742L; assay type: cell-based; conditions: T-Rex-293, ELISA
T3 construct: expressed in transfected cells; host or cells: T-REx-293
Source text: as §1, §2

PSA [1] = assay: intracellular PSA ELISA in VCaP cells; assay type: cell-based; conditions: Homo sapiens, CSS + 0.1 nM R1881, 48 hours, read-out: IC50, inhibiting PSA expression
Experimental: (§3) Intracellular prostate specific antigen (PSA) levels were determined using a PSA enzyme-linked immunosorbent assay (ELISA). […] The cell proliferation was determined using the CellTiter-Glo® assay. […] The CaspaseGlo® assay was carried out to measure the level of apoptosis in cells.
(§4) To evaluate the pharmacological effect of Compound A in vitro, PSA, cell proliferation, and apoptosis assays were carried out in VCaP cells.

VCaP cells = assay: apoptosis in VCaP cells (CaspaseGlo); assay type: cell-based; conditions: Homo sapiens, CSS + 0.1 nM R1881, 72 hours, read-out: EC50, inducing apoptosis
Experimental: as §3, §4

[2] = Compound A in clinical setting: treatment-related adverse events; assay type: in vivo, human; conditions: TRAEs, n = 84
PSA [3] = assay: plasma PSA levels by ELISA, intact VCaP tumor model; assay type: in vivo, mouse
Source text: Plasma PSA levels are used as a clinical biomarker of disease progression and are thought to be closely related with the degree of AR activity (Catalona, W. J., Richie, J. P., Ahmann, F. R., et al. Comparison of digital rectal examination and serum prostate specific antigen in the early detection of prostate cancer: results of a multicenter clinical trial of 6,630 men. The Journal of Urology. 1994; 151(5):1283-1290. Cleutjens, K. B., van Eekelen, C. C., van der Korput, H. A., et al. Two androgen response regions cooperate in steroid hormone regulated activity of the prostate-specific antigen promoter. J Biol Chem. 1996; 271(11):6379-6388.). Plasma PSA levels upon Compound A treatment were evaluated by ELISA in samples from the intact VCaP tumor model.

[4] = tested on: mutant AR proteins (ligand binding domain mutations); assay: degradation of clinically relevant AR point mutants in HEK293 or T-REx-293 cells; assay type: cell-based, human; conditions: stably transfected
Experimental: Plasmids expressing AR WT or the indicated AR mutants were stably transfected into HEK293 cells. Each cell line was treated with indicated concentrations of Compound A for 24 hours. AR levels were determined by AR ELISA without background subtraction. […]
as §2

AR T878A/S889G = target: T4, AR T878A/S889G (Homo sapiens, UniProt P10275, S889G/T878A); assay: AR degradation in T-Rex-293 cell line, T878A/S889G; assay type: cell-based; conditions: T-Rex-293, ELISA
T4 construct: expressed in transfected cells; host or cells: T-REx-293
Source text: as §1, §2

AR W742C = target: T5, AR W742C (Homo sapiens, UniProt P10275, W742C); assay: AR degradation in T-Rex-293 cell line, W742C; assay type: cell-based; conditions: T-Rex-293, ELISA
T5 construct: expressed in transfected cells; host or cells: T-REx-293
Source text: as §1, §2

AR T878S = target: T6, AR T878S (Homo sapiens, UniProt P10275, T878S); assay: AR degradation in T-Rex-293 cell line, T878S; assay type: cell-based; conditions: T-Rex-293, ELISA
T6 construct: expressed in transfected cells; host or cells: T-REx-293
Source text: as §1, §2

AR F877L/T878A = target: T7, AR F877L/T878A (Homo sapiens, UniProt P10275, F877L/T878A); assay: AR degradation in T-Rex-293 cell line, F877L/T878A; assay type: cell-based; conditions: T-Rex-293, ELISA
T7 construct: expressed in transfected cells; host or cells: T-REx-293
Source text: as §1, §2

T5 sequence (P10275 whole entry W742C): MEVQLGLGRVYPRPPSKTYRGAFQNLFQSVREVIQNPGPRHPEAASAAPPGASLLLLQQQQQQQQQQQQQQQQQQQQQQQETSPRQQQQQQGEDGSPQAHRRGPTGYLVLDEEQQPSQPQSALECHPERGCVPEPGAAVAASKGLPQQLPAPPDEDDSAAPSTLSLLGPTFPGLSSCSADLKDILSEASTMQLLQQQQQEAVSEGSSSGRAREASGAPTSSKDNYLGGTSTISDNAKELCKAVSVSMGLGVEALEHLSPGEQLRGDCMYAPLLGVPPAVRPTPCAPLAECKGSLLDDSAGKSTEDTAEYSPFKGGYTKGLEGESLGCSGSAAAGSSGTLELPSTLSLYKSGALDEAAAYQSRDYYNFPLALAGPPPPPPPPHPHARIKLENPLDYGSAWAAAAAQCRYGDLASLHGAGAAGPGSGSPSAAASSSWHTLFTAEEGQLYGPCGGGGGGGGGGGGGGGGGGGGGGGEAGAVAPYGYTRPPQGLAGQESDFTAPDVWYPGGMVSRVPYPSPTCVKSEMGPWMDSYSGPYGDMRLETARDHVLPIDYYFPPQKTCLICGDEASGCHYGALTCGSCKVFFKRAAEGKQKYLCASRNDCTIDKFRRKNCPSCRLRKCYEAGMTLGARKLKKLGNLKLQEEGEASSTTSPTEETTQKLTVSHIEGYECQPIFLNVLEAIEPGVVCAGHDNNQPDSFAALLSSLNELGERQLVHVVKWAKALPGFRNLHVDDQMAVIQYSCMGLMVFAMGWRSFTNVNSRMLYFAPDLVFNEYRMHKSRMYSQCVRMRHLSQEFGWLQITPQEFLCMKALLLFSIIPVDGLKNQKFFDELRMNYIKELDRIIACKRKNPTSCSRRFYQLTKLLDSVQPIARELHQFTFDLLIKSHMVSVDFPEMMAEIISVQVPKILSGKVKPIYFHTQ
T2 sequence (P10275 whole entry T878A/D891H): as the sequence (P10275 whole entry W742C) above, with C742W, T878A, D891H counted along it
T1 sequence (P10275 whole entry V716M): as the sequence (P10275 whole entry W742C) above, with V716M, C742W counted along it
T7 sequence (P10275 whole entry F877L/T878A): as the sequence (P10275 whole entry W742C) above, with C742W, F877L, T878A counted along it
T3 sequence (P10275 whole entry W742L): as the sequence (P10275 whole entry W742C) above, with C742L counted along it
T6 sequence (P10275 whole entry T878S): as the sequence (P10275 whole entry W742C) above, with C742W, T878S counted along it
T4 sequence (P10275 whole entry T878A/S889G): as the sequence (P10275 whole entry W742C) above, with C742W, T878A, S889G counted along it

For `COc1cc(O[C@H]2C(C)(C)[C@H](NC(=O)c3ccc(N4CCC(CN5CCN(c6ccc(C(=O)N[C@H]7CCC(=O)NC7=O)c(F)c6)CC5)CC4)cc3)C2(C)C)ccc1C#N` [Compound A, 4-(4-((1-(4-(((1R,3R)-3-(4-cyano-3-methoxyphenoxy)-2,2,4,4-tetramethylcyclobutyl)carbamoyl)phenyl)piperidin-4-yl)methyl)piperazin-1-yl)-N—((S)-2,6-dioxopiperidin-3-yl)-2-fluorobenzamide], the DC50 (AR V716M) was 0.4 nM, the DC50 (AR T878A/D891H) was 3.4 nM and the DC50 (AR W742L) was 2.3 nM. For the same compound, the IC50 (PSA [1]) was 4 nM, the EC50 (VCaP cells) was 8 nM and the “Alopecia: Any Grade” value [2] was 8 n. For the same compound, the “Alopecia: Grade 3+” value [2] was 0 (0) n (%), the “Anemia: Any Grade” value [2] was 3 n and the “Anemia: Grade 3+” value [2] was 0 (0) n (%). The “Any TRAE: Any Grade” value [2] was 55 n, the “Any TRAE: Grade 3+” value [2] was 7 (8) n (%) and the “Aspartate Aminotransferase increase: Any Grade” value [2] was 6 n. For the same compound, the “Aspartate Aminotransferase increase: Grade 3+” value [2] was 1 (1) n (%), the “Decreased appetite: Any Grade” value [2] was 9 n and the “Decreased appetite: Grade 3+” value [2] was 0 (0) n (%). The “Diarrhea: Any Grade” value [2] was 9 n, the “Diarrhea: Grade 3+” value [2] was 1 (1) n (%) and the “Fatigue: Any Grade” value [2] was 24 n. For the same compound, the “Fatigue: Grade 3+” value [2] was 2 (2) n (%), the “Nausea: Any Grade” value [2] was 12 n and the “Nausea: Grade 3+” value [2] was 0 (0) n (%). The “Vomiting: Any Grade” value [2] was 9 n, the “Vomiting: Grade 3+” value [2] was 0 (0) n (%) and the “Weight decrease: Any Grade” value [2] was 1 n. For the same compound, the “Weight decrease: Grade 3+” value [2] was 0 (0) n (%), the “plasma PSA levels vs enzalutamide” value (PSA [3]; 3 mg/kg and 10 mg/kg vs 20 mg/kg enzalutamide) was “reduced PSA levels more robustly than 20 mg/kg of enzalutamide” and the “plasma PSA levels” value (PSA [3]; all 3 doses (10, 3, 1 mg/kg/day), tumor-bearing intact mice) was “reduced PSA levels in a dose-dependent manner”. For the same compound, the “degradation of all clinically relevant AR point mutants tested vs wild-type AR” value [4] was “comparable to that observed for wild-type AR”, the DC50 (AR T878A/S889G) was 3.6 nM and the DC50 (AR W742C) was 2.7 nM. For the same compound, the DC50 (AR T878S) was 0.9 nM and the DC50 (AR F877L/T878A) was 7 nM.
